These are literature values, as cited in patent US7439254B2, “Compounds, compositions, and methods” (Cytokinetics, Inc., priority 2003, dated 2008).

This series relates to A549 cells. The settings on record: data provided by National Cancer Institute, Developmental Therapeutic Program.
What is called GI50 is the concentration at which growth is held to half of that of the control. As for `O=c1[nH]cc(F)c(=O)[nH]1` [5-fluorouracil], the 50% growth inhibitory concentration (GI50) was 1000 nM.
In the case of `COc1cccc2c1C(=O)c1c(O)c3c(c(O)c1C2=O)C[C@@](O)(C(=O)CO)C[C@@H]3O[C@H]1C[C@H](N)[C@H](O)[C@H](C)O1` [doxorubicin], the GI50 is 63 nM.
Regarding `NC(=O)NO` [hydroxyurea], the GI50 was 500000 nM.
Turning to `CC(=O)O[C@H]1C(=O)[C@@]2(C)[C@H]([C@H](OC(=O)c3ccccc3)[C@]3(O)C[C@H](OC(=O)[C@H](O)[C@@H](NC(=O)c4ccccc4)c4ccccc4)C(C)=C1C3(C)C)[C@]1(OC(C)=O)CO[C@@H]1C[C@@H]2O` [paclitaxel], the GI50 is 4 nM.
